For one molecule, survival, MIC50 and Drug uptake results are on record in ChEMBL document CHEMBL1157738, “Simocyclinone D8 turns on against Gram-negative bacteria in a clinical setting” (2010).

In brackets after ≈: the same amount, converted by molar mass.

The test system of assay [1] is Klebsiella pneumoniae. The assay is described as follows: Antibacterial activity against Klebsiella pneumoniae isolate 91 assessed as residual bacterial survival at 50 mg/L after 24 hrs by twofold serial dilution method. It is filed as functional. Particulars: isolate 91, 24 h.
Assay [2] concerns Klebsiella pneumoniae. In words: Antibacterial activity against Klebsiella pneumoniae isolate 370 expressing qnr B19 gene, GyrA D87G mutant assessed as residual bacterial survival at 50 mg/L after 24 hrs by twofold serial dilution method. Type of assay: functional. Conditions: isolate 370, 24 h.
In assay [3] the test system is Escherichia coli. The assay is described as follows: Antibacterial activity against Escherichia coli isolate 115 expressing GyrA S83L mutant assessed as residual bacterial survival at 50 mg/L after 24 hrs by twofold serial dilution method. It is filed as functional. Conditions: isolate 115, 24 h.
Assay [4] relates to Escherichia coli. In words: Antibacterial activity against Escherichia coli XL-1Blue assessed as residual bacterial survival at 50 mg/L after 24 hrs by twofold serial dilution method. It is filed as functional.
The test system of assay [5] is Klebsiella pneumoniae. The assay is described as follows: Antibacterial activity against Klebsiella pneumoniae isolate 5 expressing qnr B19 gene, GyrA D87G mutant assessed as residual bacterial survival at 50 mg/L after 24 hrs by twofold serial dilution method. Type of assay: functional. Conditions: isolate 5, 24 h.
Assay [6] relates to Klebsiella pneumoniae. In words: Antibacterial activity against Klebsiella pneumoniae isolate 16 expressing qnr B19 gene, GyrA D87G mutant assessed as residual bacterial survival at 50 mg/L after 24 hrs by twofold serial dilution method. Conditions: isolate 16, 24 h. It is filed as functional.
For assay [7], the system named is Escherichia coli. The assay is described as follows: Antibacterial activity against Escherichia coli XL-1Blue after 24 hrs by twofold serial dilution method. It is filed as functional.
Assay [8] concerns Escherichia coli. In words: Antibacterial activity against Escherichia coli JM109 assessed as residual bacterial survival at 50 mg/L after 24 hrs by twofold serial dilution method. It is filed as functional. Particulars: JM109, JM 109, 24 h.
Assay [9] has as its system Klebsiella pneumoniae. The assay is described as follows: Antibacterial activity against Klebsiella pneumoniae isolate 110 expressing qnr B19 gene, GyrA D87G mutant assessed as residual bacterial survival at 50 mg/L after 24 hrs by twofold serial dilution method. Type of assay: functional. Conditions: isolate 110, 24 h.
For assay [10], the system named is Escherichia coli. In words: Antibacterial activity against Escherichia coli isolate 41 after 24 hrs by twofold serial dilution method. It is filed as functional.
The subject of assay [11] is Escherichia coli. The assay is described as follows: Antibacterial activity against Escherichia coli isolate 95 expressing GyrA S83L mutant assessed as residual bacterial survival at 50 mg/L after 24 hrs by twofold serial dilution method. Type of assay: functional. Conditions: isolate 95, 24 h.
Assay [12] concerns Klebsiella pneumoniae. In words: Antimicrobial activity against Klebsiella pneumoniae isolate 97 assessed drug uptake. It is filed as functional, organism-based.
Assay [13] deals with Escherichia coli. The assay is described as follows: Antibacterial activity against Escherichia coli isolate 13 after 24 hrs by twofold serial dilution method. Type of assay: functional.
The test system of assay [14] is Klebsiella pneumoniae. In words: Antibacterial activity against Klebsiella pneumoniae isolate 97 expressing qnr B19 gene assessed as residual bacterial survival at 50 mg/L after 24 hrs by twofold serial dilution method. Type of assay: functional. Conditions: isolate 97, 24 h.

In the case of `CC(=O)O[C@@H]1[C@@H](C)O[C@@H](c2ccc3c(c2O)[C@@H](O)[C@]24O[C@@]2(C3=O)[C@@]2(O)C(=O)C=C(C)C[C@@]2(O)C[C@@H]4O)C[C@H]1OC(=O)/C=C/C=C/C=C/C=C/C(=O)Nc1c(O)c2ccc(O)c(Cl)c2oc1=O` [SIMOCYCLINONE D8], the survival at 50 µg/mL in the assay on Klebsiella pneumoniae [1], in the assay with Klebsiella pneumoniae [2], in the assay on Escherichia coli [3], with Escherichia coli [4], with Klebsiella pneumoniae [5] and with Klebsiella pneumoniae [6] was more than 90% throughout. In addition, the survival at 50 µg/mL in the assay on Escherichia coli [8] was more than 90%; with Klebsiella pneumoniae [9], more than 90%; with Escherichia coli [11] it was more than 90%; in the assay on Klebsiella pneumoniae [14], 68%. The values for the MIC50 against Escherichia coli [7], against Escherichia coli [10] and against Escherichia coli [13] were more than 100 µg/mL, 0.78 µg/mL (≈ 0.837 µM) and more than 100 µg/mL, respectively. The molecule also had a Drug uptake with Klebsiella pneumoniae [12] of 40 pmol.

For orientation: MIC50 means an inhibitory concentration at the 50% level, which refers to growth in some studies and to a panel of isolates in others.
